The record followed here is PubChem BioAssay (NCI).

The structures appear in SMILES notation. Where “and” joins values, the source holds several entries; their conditions need not be identical. Equal entries are not always repeated.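 48-hour exposure; five concentrations; linearly interpolated endpoints. Here, GI50 denotes the concentration required for 50% inhibition of growth. Definition used: TGI = concentration required for complete inhibition of growth.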 Numbered stars: 1 amine (or outer) side, 2 acyl side, 3 side chain; on linkers, the order of the positions; unused ones are H or OH. Bridge positions count the residues as written; N and C are the ends. Square brackets hold non-standard residues; d marks the D form. Peptide text beside a SMILES is read from it. I, II: the chains in the order shown. Actinocin(1to9) = Cc1c2oc3c(C)ccc(C(=O)[*:2])c3nc-2c(C(=O)[*:1])c(N)c1=O; NMeY = CN[CH](Cc1ccc(O)cc1)C(=O)O; Sar = CNCC(=O)O

Among the test systems are NCI-H226 lung; CCRF-CEM leukemia; LOX IMVI melanoma; NCI/ADR-RES ovarian; SR leukemia; U251 CNS; OVCAR-8 ovarian.
What all share (assay): NCI-60 cell line screen, 48 h

For `COc1ccc(CC2C(=O)OC(C)C(NC(=O)c3c4nc5c(C(=O)NC6C(=O)NC(C(C)C)C(=O)N7CCCC7C(=O)N(C)CC(=O)N(C)C(Cc7ccc(OC)cc7)C(=O)OC6C)ccc(C)c5oc-4c(C)c(=O)c3N)C(=O)NC(C(C)C)C(=O)N3CCCC3C(=O)N(C)CC(=O)N2C)cc1` (stereo unspecified) (I: TVP[Sar][NMeY](Me) / II: TVP[Sar][NMeY](Me); ester I:1-I:C, II:1-II:C; linker I:N-II:N via Actinocin(1to9); configuration not given here), the TGI in the assay with NCI-H226 lung was more than 0.213 µM; with CCRF-CEM leukemia it was < 0.01 µM and 0.0625 µM; in the assay with NCI/ADR-RES ovarian it was 11.5 µM and > 1 µM; in the assay with SR leukemia, more than 0.374 µM; in the assay with U251 CNS, more than 1 µM. Besides, the GI50 in the assay with CCRF-CEM leukemia was < 10 nM and 1.03 nM; with LOX IMVI melanoma, < 10 nM and 4.23 nM; with NCI/ADR-RES ovarian it was 0.0901 µM and > 0.863 µM; in the assay with SR leukemia it was 0.646 nM; with U251 CNS, 1.89 nM.

Regarding `COc1ccc(-c2cc(=O)c3c(O)c(OC)c(OC)c(OC)c3o2)cc1`, the TGI with NCI-H226 lung, in the assay with CCRF-CEM leukemia, in the assay on LOX IMVI melanoma, in the assay on NCI/ADR-RES ovarian, in the assay with U251 CNS and in the assay with OVCAR-8 ovarian was more than 100 µM throughout.

For `CCCCn1c(=O)c(/C=C/C(=O)/C=C/c2cc3ccccc3n(CCCC)c2=O)cc2ccccc21`, the GI50 in the assay on NCI-H226 lung is 2510 nM; in the assay on LOX IMVI melanoma it was 1240 nM; with NCI/ADR-RES ovarian it was 3.01 µM; with SR leukemia it was 315 nM; in the assay on U251 CNS, 1030 nM; in the assay on OVCAR-8 ovarian, 1500 nM. Also, the TGI in the assay with NCI-H226 lung was 6 µM; with LOX IMVI melanoma it was 2.7 µM; in the assay with NCI/ADR-RES ovarian, 13.5 µM; in the assay on SR leukemia it was more than 100 µM; with U251 CNS, 2.24 µM; with OVCAR-8 ovarian, 4.12 µM.

In the case of `CCN(Cc1c(F)cccc1Cl)c1ccc(CO)c(Cl)c1`, the GI50 with CCRF-CEM leukemia is 16200 nM; in the assay on LOX IMVI melanoma, 18000 nM; with NCI/ADR-RES ovarian, 10.4 µM; in the assay with SR leukemia it was 16500 nM; with OVCAR-8 ovarian, 7650 nM. Besides, the TGI in the assay on CCRF-CEM leukemia was 39 µM; with LOX IMVI melanoma it was 33.5 µM; in the assay on NCI/ADR-RES ovarian, 28.7 µM; in the assay with SR leukemia it was 42.7 µM; with U251 CNS it was 16.6 µM; with OVCAR-8 ovarian it was 23.9 µM.

As for `O=C1CSC(c2c[nH]c3ccccc23)N1c1ccc(Cl)cc1Cl` (stereo unspecified), the TGI with CCRF-CEM leukemia, in the assay with LOX IMVI melanoma, in the assay on NCI/ADR-RES ovarian, in the assay on SR leukemia, in the assay on U251 CNS and with OVCAR-8 ovarian was more than 100 µM throughout.

`COc1cc2c3c(n(CCCNCCCN)c(=O)c2cc1OC)-c1cc2c(cc1C3=O)OCO2`: the GI50 with NCI-H226 lung was 2210 nM; in the assay with CCRF-CEM leukemia, 220 nM; in the assay with LOX IMVI melanoma it was 659 nM; with NCI/ADR-RES ovarian it was 22.9 µM; with U251 CNS, 1250 nM; in the assay on OVCAR-8 ovarian, 1270 nM. Further, the TGI was 8.45 µM in the assay on NCI-H226 lung; 15.8 µM in the assay with CCRF-CEM leukemia; 3.42 µM in the assay with LOX IMVI melanoma; 98.7 µM in the assay with NCI/ADR-RES ovarian; 11.4 µM with U251 CNS; 13 µM with OVCAR-8 ovarian.

`N#CC1=C(N)NC(=O)NC12Nc1ccccc1N2`: the GI50 is more than 100000 nM in the assay with NCI-H226 lung; more than 100000 nM in the assay on LOX IMVI melanoma; more than 100 µM in the assay on NCI/ADR-RES ovarian; more than 100000 nM in the assay with U251 CNS; more than 100000 nM with OVCAR-8 ovarian. Moreover, the TGI in the assay with NCI-H226 lung, in the assay on LOX IMVI melanoma, in the assay with NCI/ADR-RES ovarian, in the assay with U251 CNS and in the assay on OVCAR-8 ovarian was more than 100 µM each time.

As to `O=C1NC(c2ccccc2)C2(C(=O)O)CN(C3CC3)c3cc(N4CCNCC4)c(F)cc3C2N1` (stereo unspecified), the GI50 was more than 100000 nM in the assay with NCI-H226 lung; more than 100000 nM in the assay with CCRF-CEM leukemia; more than 100000 nM in the assay with LOX IMVI melanoma; more than 100 µM in the assay on NCI/ADR-RES ovarian; more than 100000 nM in the assay with U251 CNS; more than 100000 nM in the assay with OVCAR-8 ovarian. Also, the TGI in the assay with NCI-H226 lung, in the assay with CCRF-CEM leukemia, with LOX IMVI melanoma, with NCI/ADR-RES ovarian, in the assay with U251 CNS and in the assay on OVCAR-8 ovarian was more than 100 µM in each case.

`COc1ccc2c(c1OC)C(=O)N1C2=Cc2c(cc3c(c2OC)OCO3)CC1N(C)C` (stereo unspecified): the TGI with NCI-H226 lung, in the assay with CCRF-CEM leukemia, in the assay on NCI/ADR-RES ovarian, in the assay with SR leukemia, with U251 CNS and with OVCAR-8 ovarian was more than 100 µM throughout.

Turning to `CCn1c2ccccc2c2cc(C(=O)c3ccc(C)c4ccccc34)ccc21`, the GI50 is 1910 nM in the assay on NCI-H226 lung; 359 nM in the assay on CCRF-CEM leukemia; 323 nM in the assay on LOX IMVI melanoma; 0.312 µM in the assay with NCI/ADR-RES ovarian; 278 nM in the assay on U251 CNS; 493 nM with OVCAR-8 ovarian. Further, the TGI in the assay with NCI-H226 lung was more than 100 µM; in the assay with CCRF-CEM leukemia, more than 100 µM; in the assay on LOX IMVI melanoma, 1.62 µM; in the assay with NCI/ADR-RES ovarian, more than 100 µM; in the assay with U251 CNS, 1.52 µM; in the assay with OVCAR-8 ovarian, more than 100 µM.

Consider `C=C(C)[C@@H]1CC[C@]2(C(=O)NS(=O)(=O)c3ccccc3)CC[C@]3(C)[C@H](CC[C@@H]4[C@@]5(C)CC[C@H](OC(=O)NS(=O)(=O)c6ccccc6)C(C)(C)[C@@H]5CC[C@]43C)[C@@H]12`, for which the GI50 with NCI-H226 lung is 2380 nM; with CCRF-CEM leukemia, 2290 nM; in the assay on LOX IMVI melanoma it was 1560 nM; in the assay with NCI/ADR-RES ovarian, 3.87 µM; in the assay with U251 CNS it was 1460 nM; in the assay on OVCAR-8 ovarian it was 2890 nM. Also, the TGI in the assay on NCI-H226 lung was determined as 13.8 µM; in the assay with CCRF-CEM leukemia it was 19.5 µM; with LOX IMVI melanoma it was 3.06 µM; in the assay on NCI/ADR-RES ovarian, 24 µM; in the assay with U251 CNS it was 5.96 µM; in the assay on OVCAR-8 ovarian, 19.1 µM.

For the compound `CC1SC(c2ccc(Cl)cc2Cl)N(NC(=O)C(O)c2ccccc2)C1=O` (stereo unspecified), the GI50 in the assay with NCI-H226 lung was 44100 nM; in the assay with CCRF-CEM leukemia, 65400 nM; with LOX IMVI melanoma, more than 100000 nM; in the assay on U251 CNS it was 61400 nM; in the assay with OVCAR-8 ovarian, 63400 nM. Moreover, the TGI with NCI-H226 lung, in the assay with CCRF-CEM leukemia, in the assay with LOX IMVI melanoma, in the assay on U251 CNS and in the assay on OVCAR-8 ovarian was more than 100 µM in each case.

Consider `C[N+](C)=c1ccc2nc3c(cc(NCCCNc4cc5oc6cc(=[N+](C)C)ccc-6nc5c5ccccc45)c4ccccc43)oc-2c1`, for which the GI50 is 22100 nM in the assay with NCI-H226 lung; 4390 nM in the assay with CCRF-CEM leukemia; 6.63 µM in the assay on NCI/ADR-RES ovarian; 2580 nM with SR leukemia; 2360 nM with U251 CNS; 1900 nM with OVCAR-8 ovarian. For the same compound, the TGI is 63.7 µM in the assay with NCI-H226 lung; 21.7 µM with CCRF-CEM leukemia; more than 100 µM with NCI/ADR-RES ovarian; more than 28.5 µM with SR leukemia; 5.87 µM in the assay with U251 CNS; 5.85 µM in the assay with OVCAR-8 ovarian.
